Experimental data: patent US20250074946A1, “USE OF SE-DR AFFINITY PEPTIDE IN PREPARING DRUG FOR TREATING RHEUMATIC DISEASE” (HEBEI FITNESS BIOTECHNOLOGY CO., LTD., priority 2021, published 2025)
Where no end group is shown, it is not given here.

What was measured:
CIA rats [1] = assay: APL20 in combination with methotrexate in CIA rats (Example 11); assay type: in vivo, rat
CIA rats [2] = assay: as above; assay type: in vivo, rat; conditions: for inflammation score during drug discontinuation compared with that at the time of drug discontinuation: 21 days of observation after stopping at day 21; for Pathological score during 21 days of drug discontinuation: HE staining of ankle joint, score 0-4; for AUC, during drug discontinuation (day 22-42): inflammation score AUC after stopping administration at day 21
From the text: Female Lewis rats were used to establish CIA model. Methods: the rats were immunized by intradermal injecting the emulsion prepared by bovine C II and IFA at the tail head. After 7 days, the rats were boosted once with the same method. Thereafter, the morphological changes of the four paws of the rats were examined every day, and the rats were randomly assigned to the treatment group at the inflammation score of 1. […] Another 8 female Lewis rats were not subjected to model establishment and set as the control group. PBS was administrated to both the model group and the control group. Corresponding drugs were administrated to the rats in each group by tail vein injection at the volume of 5 mL/kg, in which methotrexate was administrated twice a week, and other drugs were administrated once every other day, for 21 consecutive days, followed by a recovery period of 21 days. The inflammation scores of the four paws of the rats in each group were evaluated during the administration (once every other day), and the area under the curve (AUC) of the inflammation score was calculated during the administration. During drug discontinuation, the inflammation scores of the four paws of the rats in each group were continuously evaluated (once every other day), and the rats were sacrificed on day 22 after drug discontinuation. HE staining was performed on the ankle joint for tissue injury evaluation. The specific scoring criteria were as follows: 0=normal synovial tissue; 1=synovial hyperplasia and inflammatory cell infiltration; 2-pannus formation and cartilage erosion; 3=destruction of most of the cartilage with subchondral bone erosion; 4=loss of joint integrity, ankylosis.

rats = conditions: cited from earlier work
HLA-DR1 = HLA-DR1 (Homo sapiens, UniProt P01903+P01911, A100R/D57E/F55L/F60I/F76Y/I96L/L162R/M171V/P40L/Q125E/R42F/V115G/Y59C); assay: Determination of polypeptide affinity (fluorescence polarization competition); assay type: binding
Procedure: The reaction system was at pH 7.4. Before use, protease inhibitor cocktail was added, and incubated at 37° C. for 30 min. The fluorescence polarization values were read. The mean value of the free labeled polypeptides was set as FP_free, and the value of the well without the competitive peptide was set as FP_no_comp. The relative binding rate of other wells was calculated according to the formula=(FP_sample−FP_free)/(FP_no_comp−FP_free). A curve was plotted using the relative binding rate and the concentration of the test polypeptide, and the IC50 value was calculated by curve fitting.

PBMC = PBMC stimulation test, IL-6 in supernatant by ELISA; assay type: cell-based, human; conditions: PBMC 1×10^6 cell/ml, peptide 10 μg/ml, 5 days of culture
From the text: The SE-DR molecule is directly related to the pathogenesis of RA. It can present RA-related autoantigens in vivo, such as type II collagen (CII), heat shock protein 60 (Hsp60), cartilage glycoprotein (HCgp-39) and so on, and further activate autoreactive T cells, leading to the occurrence of rheumatoid arthritis. An important strategy for the treatment of RA is to use competitive inhibition to block the activation of autoreactive T cells by autoantigen peptides. […] Based on the above principles, we have designed and synthesized a series of altered peptide ligands, and screened for their affinity to SE-DR and for the activation ability on the peripheral blood T cells in RA patients. The specific steps and results are shown in Example 1 and Example 2.
3 mL ficoll was added to a 15 mL centrifuge tube, and 4 mL blood sample was then applied on the surface of ficoll. The tube was centrifuged at 400 g at 18-20° C. for 30-40 min. The upper layer of plasma was aspirated with a Pasteur pipette, and the PBMC layer (approximately 2 mL) was aspirated, and added to a 14 mL centrifuge tube previously filled with at least 3 volumes (6 mL) of PBS. The mixture was gently resuspended. The tube was centrifuged at 60-100 g for 10 min at 18-20° C. After centrifugation, the supernatant was removed with a Pasteur pipette, and the resulting cell mass was resuspended in 6-8 mL PBS and centrifuged at 18-20° C. for 10 min at 60-100 g to remove the supernatant. The cells were resuspended in an appropriate amount of 1640 complete medium and diluted to 1×10^6 cell/ml after cell counting. The diluted cell suspension was added to a 96-well plate. The positive control, allosteric peptide, was added to 100 μl cell culture to a final concentration of 10 μg/ml. The mixture was replenished to 200 μL with 1640 complete medium. After 5 days of culture, the supernatant was aspirated, centrifuged at 3000 rpm for 5 minutes, and the level of IL-6 in the supernatant was detected by ELISA.

[3] = tested on: immune system of healthy monkeys; assay: Immune indicators of cynomolgus monkeys after one month of administration (Example 5); assay type: in vivo, cynomolgus monkey; conditions: once a day for 4 weeks, end of administration
From the text: Cynomolgus monkeys were used to investigate the effects of the SE-DR affinity peptide on the immune indicators of cynomolgus monkeys after continuous administration for one month. […] At the end of administration, the immune indicators, including the serum anti-FNS007 antibodies, the immunoglobulins of different serotypes, the serum complement, the peripheral blood T lymphocyte and the serum cytokines, were observed.

CIA rats [4] = assay: CIA rat model: inflammation score AUC and peripheral blood T-cell subtypes (Example 3); assay type: in vivo; conditions: 0.2 mmol
Procedure: Collagen-induced arthritis (CIA) model was established by intradermal injection of the emulsion formulated using type II bovine collagen (CII) together with incomplete Freund's adjuvant (IFA) into the tail head of a female Lewis rat. After the model establishment, the morphological changes of rats' four paws were examined every day. […] Except for the model group, the dosage of polypeptide was all set as 0.2 mmol. A control group was also set up, in which the drug was injected into the tail vein once every other day for […]. The area under the curve (AUC) of the inflammation score was used for the efficacy analysis from the day the rats were enrolled, once every other day, until the end of administration.

[5] = tested on: immune system of healthy rats; assay: Immune indicators of SD rats after one month of administration (Example 4); assay type: in vivo, rat; conditions: once a day for 4 weeks, end of administration
Procedure: SD rats were used to investigate the effects of the SE-DR affinity peptides on the immune indicators of the rats after continuous administration for one month. […] At the end of administration, analysis was conducted on the serum anti-FNS007 antibodies, different types of serum immunoglobulins, the serum complement, the peripheral blood T lymphocyte and the serum cytokines.

[6] = tested on: CIA mice infected with chronic hepatitis B; assay: CIA mice infected with chronic hepatitis B (Example 8); assay type: in vivo, mouse
Procedure: Establishment of chronic hepatitis B model in mice: DBA/1 mice were injected with Raav8-1. 3 HBV (1×10^12 vg/mL) via tail vein to establish HBV chronic hepatitis B model.
DBA/1 mice infected with chronic hepatitis B were used to establish CIA model with chronic hepatitis B infection. Methods: Two days after the mice were injected with Raav8-1.3 HBV (1×10^12 vg/mL) via tail vein, the emulsion of bovine C II and CFA (containing 100 μg collagen) was intradermally injected into the tail head of the mice for immunization. After 21 days, the mice were boosted once by intraperitoneal injection of the emulsion (containing 100 μg collagen) prepared by bovine C II and IFA. Thereafter, the morphological changes of the four paws of the mice were examined every day, and the mice were randomly assigned to the treatment group at inflammation score of 1. […] Another 10 mice with latent hepatitis B infection were not subjected to model establishment and set as the control group. PBS was administrated to both the model group and the control group. The mice in each group were given the corresponding drugs by tail intravenous injection at the volume of 10 ml/kg, once every other day, for 27 consecutive days. The mice were sacrificed on day 28 after administration. The inflammation scores of the four paws of the mice in each group were evaluated during the administration. The serological indicators for virus injection and liver function of the mice were detected on the day of booster immunization (22 days after tail vein injection) and at the time of sacrifice.

[7] = tested on: CIA rats with latent tuberculosis infection
[8] = inflammation score AUC, APL20 0.2 mmol once every other day, methotrexate 0.5 mg/kg twice a week, i.v.
[9] = peripheral blood, […] after end of administration, flow cytometry

With CN(Cc1cnc2nc(N)nc(N)c2n1)c1ccc(C(=O)N[C@@H](CCC(=O)O)C(=O)O)cc1 [Methotrexate, methotrexate] the “Incidence of infection in mice” value (CIA rats [1]) was 20%, the “inflammation score during drug discontinuation compared with that at the time of drug discontinuation” value (CIA rats [2]) was “significantly increased” and the “Pathological score during 21 days of drug discontinuation” value (CIA rats [2]) was 2.87 ± 0.79. The “AUC, during drug discontinuation (day 22-42)” value (CIA rats [2]) was 100.13 ± 50.66, the “AUC, during administration (day 1-21)” value (CIA rats [2]; [8]) was 67.69 ± 22.72 and the “AUC, the first week during administration” value (CIA rats [2]; [8]) was 16.58 ± 5.23. The “AUC, during administration (day 1-21)” value (CIA rats [2]; inflammation score AUC, APL20 0.2 mmol once every other day, methotrexate 0.5 mg/kg twice a week, i.v., listed as methotrexate) was 67.69 and the half lethal dose (rats) was 43 mg/kg.
PGYVKQGTLGLAT [APL3] gave an IC50 (HLA-DR1) of 3.35 µM.
In the case of SIDLKDKKYKNIGAKLVQLVANNTNEEA [APL20], the “Incidence of infection in mice” value (CIA rats [1]) is reported as 0%, the “IL-6 levels in the supernatant” value (PBMC) is reported as 2.7 ng/mL and the “inflammation score during drug discontinuation compared with that at the time of drug discontinuation” value (CIA rats [2]) is reported as “could maintain the therapeutic effect”. The “Pathological score during 21 days of drug discontinuation” value (CIA rats [2]) was 2.05 ± 0.34, the “AUC, during drug discontinuation (day 22-42)” value (CIA rats [2]) was 50.11 ± 41.27 and the CD3% [3] was 62.96 ± 9.77%. For the same compound, the CD4% [3] was 27.82 ± 8.05%, the CD8% [3] was 22.97 ± 7.09% and the IFN-γ [3] was 5.18 ± 0.33 pg/mL. For the same compound, the IL-2 [3] was 4.55 ± 0.71 pg/mL, the IL-4 [3] was 2.16 ± 0.36 pg/mL and the TNF-α [3] was 2.45 ± 0.38 pg/mL. The “Inflammation score and area under the time curve (AUC)” value (“Inflammation score and area” for short) (CIA rats [4]; female Lewis CIA rats, tail vein once every other day for 15 days) was 55.31 ± 40.23, the “Th1 (%)” value (CIA rats [4]; [9]) was 0.18 ± 0.07 % and the “Th2 (%)” value (CIA rats [4]; [9]) was 4.35 ± 0.62 %. For the same compound, the “Th17 (%)” value (CIA rats [4]; [9]) was 0.88 ± 0.07 %, the “Treg (%)” value (CIA rats [4]; [9]) was 5.46 ± 0.81 % and the CD3% [5] was 36.96 ± 9.81%. For the same compound, the CD4% [5] was 18.96 ± 5.98%, the CD8% [5] was 17.99 ± 8.23% and the IFN-γ [5] was 2.58 ± 0.29 pg/mL. It also gave an IL-2 [5] of 3.55 ± 2.75 pg/mL, an IL-4 [5] of 2.03 ± 1.01 pg/mL and a TNF-α [5] of 5.09 ± 1.88 pg/mL. For the same compound, the ALT level ([6]; at sacrifice, day 28) was 46.28 ± 17.99 U/L, the “Hepatitis B activation rate (Ratio of ALT > 100 U/L)” value ([6]; at sacrifice, day 28) was 0% and the “Observation on the daily condition of mice” value ([6]; during administration) was “No abnormality”. The “Inflammation score and area” value ([6]; peptides 50 μmol, Abatacept 100 μg, tail i.v. once every other day for 27 days) was 92.34 ± 53.29, the “Observation on the daily condition of rats” value ([7]; during administration) was “No abnormality” and the Tuberculosis recurrence rate ([7]; peptides 0.2 mmol, adalimumab 1 mg/kg, 21 days) was 0%. For the same compound, the “Inflammation score and area” value ([7]; peptides 0.2 mmol, adalimumab 1 mg/kg, tail i.v. once every other day for 21 days) was 49.62 ± 35.87 and the “Culture of MTB from lungs and spleens of rats at sacrifice” value ([7]; sacrifice on day 22, peptides 0.2 mmol, adalimumab 1 mg/kg) was “Negative”.
